From patent US10213429B2, “Imidazo-pyrazinyl derivatives useful as soluble guanylate cyclase activators” (Merck Sharp & Dohme Corp., priority 2015, dated 2019)

Tests used:
[1] = biological target: T1, sGC α1/β1 heterodimer (Homo sapiens, UniProt Q02108+Q02153); test: Cell-Based sGC Functional Assay (CASA Assay), cGMP by HTRF in CHO-K1/sGC cells; settings: for Emax: CHO-K1, percent activation relative to maximum cGMP production of Compound A (= 100%), read-out: % Act.; for EC50: cGMP production, 1 hr at 37° C., 4P fit, presence or absence of 1 μM DETA-NO not given, read-out: IP (nM) (inflection point)
T1 construct: expressed in transfected cells; host or cells: CHO-K1 (clone #7, CHO-K1/sGC)
T1 sequence (Q02108 1-690): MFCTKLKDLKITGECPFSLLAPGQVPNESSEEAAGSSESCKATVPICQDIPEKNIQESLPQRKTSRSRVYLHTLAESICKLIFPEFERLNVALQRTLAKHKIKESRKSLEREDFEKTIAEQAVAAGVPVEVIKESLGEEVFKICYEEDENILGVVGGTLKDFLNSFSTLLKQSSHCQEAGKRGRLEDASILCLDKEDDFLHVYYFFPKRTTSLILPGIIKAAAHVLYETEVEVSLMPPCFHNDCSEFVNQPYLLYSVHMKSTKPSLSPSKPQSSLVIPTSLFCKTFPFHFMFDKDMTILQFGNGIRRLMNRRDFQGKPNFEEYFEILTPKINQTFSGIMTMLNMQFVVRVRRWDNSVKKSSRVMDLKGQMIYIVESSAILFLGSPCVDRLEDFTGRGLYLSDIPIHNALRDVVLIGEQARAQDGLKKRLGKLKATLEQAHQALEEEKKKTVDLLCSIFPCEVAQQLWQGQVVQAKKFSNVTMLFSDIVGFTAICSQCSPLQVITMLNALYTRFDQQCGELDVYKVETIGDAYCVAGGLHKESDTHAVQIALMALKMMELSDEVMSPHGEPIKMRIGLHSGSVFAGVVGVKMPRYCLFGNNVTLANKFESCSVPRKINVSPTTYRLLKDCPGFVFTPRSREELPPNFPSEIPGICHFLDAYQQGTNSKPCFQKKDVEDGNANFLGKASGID
T1 sequence (Q02153 1-619): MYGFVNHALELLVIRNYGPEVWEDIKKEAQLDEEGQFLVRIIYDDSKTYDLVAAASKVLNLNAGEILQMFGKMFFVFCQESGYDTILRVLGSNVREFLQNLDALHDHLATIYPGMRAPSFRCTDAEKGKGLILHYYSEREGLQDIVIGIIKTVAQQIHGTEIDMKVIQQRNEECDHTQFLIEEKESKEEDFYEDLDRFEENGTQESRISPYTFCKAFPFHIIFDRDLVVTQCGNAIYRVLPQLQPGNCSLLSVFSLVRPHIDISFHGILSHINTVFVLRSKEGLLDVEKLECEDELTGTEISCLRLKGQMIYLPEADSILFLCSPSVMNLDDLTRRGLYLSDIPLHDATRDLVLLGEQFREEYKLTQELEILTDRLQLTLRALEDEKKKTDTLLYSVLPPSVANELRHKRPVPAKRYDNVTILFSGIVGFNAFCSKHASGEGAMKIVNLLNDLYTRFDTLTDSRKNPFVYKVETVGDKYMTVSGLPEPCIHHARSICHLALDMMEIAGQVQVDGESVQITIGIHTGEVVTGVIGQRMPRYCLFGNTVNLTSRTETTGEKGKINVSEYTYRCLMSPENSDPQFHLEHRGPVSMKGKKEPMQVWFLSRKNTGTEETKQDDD
Summary of the method: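 CHO-K1 cells stably expressing human sGC α1/β1, in EBSS buffer with 5 mM MgCl2, 10 mM HEPES, 0.05% BSA and 0.5 mM IBMX, incubated with compound (2.5% DMSO) ± 1 μM DETA-NO, 1 h, 37 °C. Intracellular cGMP read by HTRF; activity as % of reference activator maximum, IP from 4-parameter fit.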

[2] = test system: Spontaneously hypertensive rats (SHR); test: Acute Efficacy in Spontaneously Hypertensive Rats (SHR), telemetry blood pressure; format: in vivo, rat; settings: SHR male
Text: Acute Efficacy in Spontaneously Hypertensive Rats (SHR)
Spontaneously hypertensive rats (SHR, male, Charles River) were implanted with DSI TA11PA-C40 telemetry device (Data Sciences, Inc., St. Paul, Minn.) under isoflurane or ketamine/metomidine anesthesia. The telemetry unit catheter was inserted into the descending aorta via the femoral artery and the telemetry device was implanted subcutaneously in the left flank area. Animals were allowed to recover from surgery for 14 days before the start of any studies. Blood pressure, heart rate, and activity signals from conscious, freely moving rats were recorded continuously for 30 seconds every 10 minutes. On the day prior to administration of compound, a single oral dose of vehicle (10% transcutol/20% Cremophor/70% water) was administered to all animals to establish baseline control data. The blood pressure lowering efficacy of compound (PO) or vehicle was evaluated following a single oral gavage. Data were collected as hourly averages, and changes in blood pressure were calculated by subtracting control baseline data on an hourly basis. Animals were maintained on normal diet with a 12 hour light-dark cycle.
Maximum peak decreases of systolic blood pressure (SBP) in SHR at a particular P.O. dose (mpk milligrams per kilogram) for the following representative compounds are provided. • Category A=SBP in SHRs<20 mmHg; Category B=SBP in SHRs 20-40 mmHg; • Category C=SBP in SHRs>40 mmHg

With `CC1(c2ccc(Cl)cc2)C(=O)Nc2nc(-c3cn4ccnc4c(CCC(F)(F)C(F)(F)F)n3)nc(O)c21` (stereo not drawn) [Example 4A, 5-(4-chlorophenyl)-4-hydroxy-5-methyl-2-(8-(3,3,4,4,4-pentafluorobutyl)imidazo[1,2-a]pyrazin-6-yl)-5H-pyrrolo[2,3-d]pyrimidin-6(7H)-one] the Emax [1] was 83%, the EC50 [1] was 125 nM and the “Cat. (maximum peak decrease of systolic blood pressure (SBP) in SHR)” value ([2]; single oral dose 3.0 mpk P.O.) was “B (Category B=SBP in SHRs 20-40 mmHg)”.
In the case of `O=C1Nc2nc(-c3cn4ccnc4c(CCCC(F)(F)F)n3)nc(O)c2C1(c1ccc(F)cc1)C1CC1` (stereo not drawn) [Example 35B, 5-cyclopropyl-5-(4-fluorophenyl)-4-hydroxy-2-(8-(4,4,4-trifluorobutyl)imidazo[1,2-a]pyrazin-6-yl)-5H-pyrrolo[2,3-d]pyrimidin-6(7H)-one], the Emax [1] is reported as 148%, the EC50 [1] is reported as 190 nM and the “Cat. (maximum peak decrease of systolic blood pressure (SBP) in SHR)” value ([2]; single oral dose 3.0 mpk P.O.) is reported as “A (Category A=SBP in SHRs<20 mmHg)”.
With `CC1(c2ccc(Cl)cn2)C(=O)Nc2nc(-c3cn4ccnc4c(CCCC(F)(F)F)n3)ncc21` (stereo not drawn) [Example 59A, 5-(5-chloropyridin-2-yl)-5-methyl-2-(8-(4,4,4-trifluorobutyl)imidazo[1,2-a]pyrazin-6-yl)-5H-pyrrolo[2,3-d]pyrimidin-6(7H)-one] the Emax [1] was 91%, the EC50 [1] was 68 nM and the “Cat. (maximum peak decrease of systolic blood pressure (SBP) in SHR)” value ([2]; single oral dose 1.0 mpk P.O.) was “B (Category B=SBP in SHRs 20-40 mmHg)”.
For `O=C1Nc2nc(-c3cn4ccnc4c(CCCC(F)(F)F)n3)nc(O)c2C1(c1ccc(Cl)cc1)C1CC1` (stereo not drawn) [Example 24B, 5-(4-chlorophenyl)-5-cyclopropyl-4-hydroxy-2-(8-(4,4,4-trifluorobutyl)imidazo[1,2-a]pyrazin-6-yl)-5H-pyrrolo[2,3-d]pyrimidin-6(7H)-one], the Emax [1] was 169%, the EC50 [1] was 106 nM and the “Cat. (maximum peak decrease of systolic blood pressure (SBP) in SHR)” value ([2]; single oral dose 3.0 mpk P.O.) was “A (Category A=SBP in SHRs<20 mmHg)”.
For `CC1(c2ccc(F)cn2)C(=O)Nc2nc(-c3cn4ccnc4c(CCCC(F)(F)F)n3)nc(O)c21` (stereo not drawn) [Example 32B, 5-(5-fluoropyridin-2-yl)-4-hydroxy-5-methyl-2-(8-(4,4,4-trifluorobutyl)imidazo[1,2-a]pyrazin-6-yl)-5H-pyrrolo[2,3-d]pyrimidin-6(7H)-one], the Emax [1] was 115%, the EC50 [1] was 880 nM and the “Cat. (maximum peak decrease of systolic blood pressure (SBP) in SHR)” value ([2]; single oral dose 1.0 mpk P.O.) was “B (Category B=SBP in SHRs 20-40 mmHg)”.
In the case of `CC1(c2ccc(Cl)cn2)C(=O)Nc2nc(-c3cn4ccnc4c(CCC(F)(F)C(F)(F)F)n3)ncc21` (stereo not drawn) [Example 36A, 5-(5-Chloropyridin-2-yl)-5-methyl-2-(8-(3,3,4,4,4-pentafluorobutyl)imidazo[1,2-a]pyrazin-6-yl)-5H-pyrrolo[2,3-d]pyrimidin-6(7H)-one], the Emax [1] is reported as 104%, the EC50 [1] is reported as 54 nM and the “Cat. (maximum peak decrease of systolic blood pressure (SBP) in SHR)” value ([2]; single oral dose 0.3 mpk P.O.) is reported as “A (Category A=SBP in SHRs<20 mmHg)”.
In the case of `CC1(c2ccc(F)cn2)C(=O)Nc2nc(-c3cn4ccnc4c(CCC(F)(F)C(F)(F)F)n3)nc(O)c21` (single isomer, unassigned) [Example 18B, 5-(5-fluoropyridin-2-yl)-4-hydroxy-5-methyl-2-(8-(3,3,4,4,4-pentafluorobutyl)imidazo[1,2-a]pyrazin-6-yl)-5H-pyrrolo[2,3-d]pyrimidin-6(7H)-one], the Emax [1] is reported as 78%, the EC50 [1] is reported as 365 nM and the “Cat. (maximum peak decrease of systolic blood pressure (SBP) in SHR)” value ([2]; single oral dose 3.0 mpk P.O.) is reported as “A (Category A=SBP in SHRs<20 mmHg)”.
With `CC1(c2ccc(Cl)cn2)C(=O)Nc2nc(-c3cn4ccnc4c(CCC(F)(F)C(F)(F)F)n3)nc(O)c21` (stereo not drawn) [Example 17A, 5-(5-chloropyridin-2-yl)-4-hydroxy-5-methyl-2-(8-(3,3,4,4,4-pentafluorobutyl)imidazo[1,2-a]pyrazin-6-yl)-5H-pyrrolo[2,3-d]pyrimidin-6(7H)-one] the Emax [1] was 90%, the EC50 [1] was 294 nM and the “Cat. (maximum peak decrease of systolic blood pressure (SBP) in SHR)” value ([2]; single oral dose 1.0 mpk P.O.) was “A (Category A=SBP in SHRs<20 mmHg)”.
For `CC1(c2ccc(F)cn2)C(=O)Nc2nc(-c3cn4ccnc4c(Cc4ccc(F)cc4)n3)ncc21` (stereo not drawn) [Example 5B, 2-(8-(4-fluorobenzyl)imidazo[1,2-a]pyrazin-6-yl)-5-(5-fluoropyridin-2-yl)-5-methyl-5H-pyrrolo[2,3-d]pyrimidin-6(7H)-one], the Emax [1] was 117%, the EC50 [1] was 30 nM and the “Cat. (maximum peak decrease of systolic blood pressure (SBP) in SHR)” value ([2]; single oral dose 0.3 mpk P.O.) was “B (Category B=SBP in SHRs 20-40 mmHg)”.
For `CC1(c2ccc(F)cc2)C(=O)Nc2nc(-c3cn4ccnc4c(CCCC(F)(F)F)n3)nc(O)c21` (stereo not drawn) [Example 30A, 5-(4-fluorophenyl)-4-hydroxy-5-methyl-2-(8-(4,4,4-trifluorobutyl)imidazo[1,2-a]pyrazin-6-yl)-5H-pyrrolo[2,3-d]pyrimidin-6(7H)-one], the Emax [1] was 89%, the EC50 [1] was 436 nM and the “Cat. (maximum peak decrease of systolic blood pressure (SBP) in SHR)” value ([2]; single oral dose 1.0 mpk P.O.) was “B (Category B=SBP in SHRs 20-40 mmHg)”.
With `CC1(c2ccc(F)cc2)C(=O)Nc2nc(-c3cn4ccnc4c(CCCC(F)(F)F)n3)ncc21` (stereo not drawn) [Example 64A, 5-(4-fluorophenyl)-5-methyl-2-(8-(4,4,4-trifluorobutyl)imidazo[1,2-a]pyrazin-6-yl)-5H-pyrrolo[2,3-d]pyrimidin-6(7H)-one] the Emax [1] was 141%, the EC50 [1] was 35 nM and the “Cat. (maximum peak decrease of systolic blood pressure (SBP) in SHR)” value ([2]; single oral dose 0.3 mpk P.O.) was “B (Category B=SBP in SHRs 20-40 mmHg)”.
In the case of `CCCCc1nc(-c2ncc3c(n2)NC(=O)C3(C)c2ccc(F)cn2)cn2ccnc12` (stereo not drawn) [Example 82B, 2-(8-butylimidazo[1,2-a]pyrazin-6-yl)-5-(5-fluoropyridin-2-yl)-5-methyl-5H-pyrrolo[2,3-d]pyrimidin-6(7H)-one], the Emax [1] is reported as 63%, the EC50 [1] is reported as 37 nM and the “Cat. (maximum peak decrease of systolic blood pressure (SBP) in SHR)” value ([2]; single oral dose 1.0 mpk P.O.) is reported as “C (Category C=SBP in SHRs>40 mmHg)”.
For `Cc1cn2cc(-c3ncc4c(n3)NC(=O)C4(C)c3ccc(F)cn3)nc(CCCC(F)(F)F)c2n1` (stereo not drawn) [Example 90B, 5-(5-Fluoropyridin-2-yl)-5-methyl-2-(2-methyl-8-(4,4,4-trifluorobutyl)imidazo[1,2-a]pyrazin-6-yl)-5H-pyrrolo[2,3-d]pyrimidin-6(7H)-one], the Emax [1] was 191%, the EC50 [1] was 589 nM and the “Cat. (maximum peak decrease of systolic blood pressure (SBP) in SHR)” value ([2]; single oral dose 0.3 mpk P.O.) was “B (Category B=SBP in SHRs 20-40 mmHg)”.
With `CC1(C(=O)NC2CC2)C(=O)Nc2nc(-c3cn4ccnc4c(Cc4ccc(F)cc4)n3)ncc21` (single isomer, unassigned) [Example 67A, N-Cyclopropyl-2-(8-(4-fluorobenzyl)imidazo[1,2-a]pyrazin-6-yl)-5-methyl-6-oxo-6,7-dihydro-5H-pyrrolo[2,3-d]pyrimidine-5-carboxamide] the Emax [1] was 167%, the EC50 [1] was 106 nM and the “Cat. (maximum peak decrease of systolic blood pressure (SBP) in SHR)” value ([2]; single oral dose 1.0 mpk P.O.) was “B (Category B=SBP in SHRs 20-40 mmHg)”.
